Test results: ChEMBL document CHEMBL1201862, “PubChem BioAssay data set” (2004)
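Cells were grown in 96-well plates and exposed to each compound for 48 hours at five concentrations; endpoints were interpolated linearly between bracketing concentrations, or set to the highest concentration if not reached. The concentration for 50% growth inhibition is given as GI50.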 The source made the active and inactive calls. No stated cut-off is given here; in the data, active = GI50 up to about 1.1 µM and inactive = higher.

Columns and labels:
Assay in all cases: NCI-60 cell line screen, 48 h
[1] = test system: A498
[2] = test system: A549
[3] = test system: ACHN
[4] = test system: COLO 205
[5] = test system: DU-145
[6] = test system: HCT-116
[7] = test system: HOP-62
[8] = test system: HT-29
[9] = test system: IGROV-1
[10] = test system: MOLT-4
[11] = test system: OVCAR-3
[12] = test system: OVCAR-4
[13] = test system: PC-3
[14] = test system: SK-MEL-28
[15] = test system: SK-MEL-2
[16] = test system: SK-OV-3
[17] = test system: SNB-75
[18] = test system: U-251
[19] = test system: UACC-257
[20] = test system: UO-31

Measured: GI50

COc1ccc(-n2nnc(C(N)=O)c2O)cc1
active: [11] 0.0187 µM
inactive: [1] > 100 µM | [2] > 100 µM | [3] > 100 µM | [4] > 100 µM | [5] > 100 µM | [6] > 100 µM | [7] > 100 µM | [8] > 100 µM | [9] > 100 µM | [10] > 100 µM | [12] > 100 µM | [13] > 100 µM | [14] > 100 µM | [15] > 100 µM | [16] > 100 µM | [17] > 100 µM | [18] > 100 µM | [19] > 100 µM | [20] 32.3 µM

O=S(=O)(O)c1ccc2c(/N=N/c3ccccc3Cl)c(O)ccc2c1
inactive: [1] > 100 µM | [2] > 100 µM | [3] > 100 µM | [4] > 100 µM | [5] > 100 µM | [6] > 100 µM | [7] > 100 µM | [8] > 100 µM | [9] > 100 µM | [10] > 100 µM | [11] > 100 µM | [12] > 100 µM | [13] > 100 µM | [14] > 100 µM | [15] > 100 µM | [16] > 100 µM | [17] > 100 µM | [18] > 100 µM | [19] > 100 µM | [20] > 100 µM

N#CC(c1ccc(O)cc1)N1CCN(C(C#N)c2ccc(O)cc2)CC1 (stereo not given)
inactive: [1] > 100 µM | [2] 99.3 µM | [3] > 100 µM | [4] > 100 µM | [5] > 51.8 µM | [6] > 100 µM | [7] 20.2 µM | [8] > 100 µM | [9] 51.1 µM | [10] > 100 µM | [11] > 100 µM | [12] > 100 µM | [13] > 100 µM | [14] 67.3 µM | [15] 68.2 µM | [16] 28.6 µM | [17] 19 µM | [18] 22.3 µM | [19] > 100 µM | [20] > 100 µM

CC(Oc1ccccc1Cl)C(=O)NN1C(=O)CSC1c1ccccc1 (stereo not given)
inactive: [1] > 100 µM | [2] 62.7 µM | [3] > 100 µM | [4] > 100 µM | [5] > 100 µM | [6] 34.9 µM | [7] > 100 µM | [8] > 100 µM | [9] > 100 µM | [10] 29.8 µM | [11] > 100 µM | [12] > 100 µM | [13] > 100 µM | [14] > 100 µM | [15] > 100 µM | [16] > 100 µM | [17] > 100 µM | [18] > 100 µM | [19] > 100 µM | [20] > 100 µM
